Experimental data as given in US4743584A, “C-terminal amide cyclic renin inhibitors containing peptide isosteres” (Merck & Co., Inc., priority 1986, dated 1988).
Positions of bridges follow the written chain, without caps; N, C: chain ends. Residues, ends and D or L forms follow the SMILES beside them. *: point of attachment. Boc = CC(C)(C)OC(=O)*

Legend:
[1] = target: T1, human kidney renin (Homo sapiens, UniProt P00797); test: Human renin inhibition; format: biochemical; conditions: purified human kidney renin; read-out: KI (dissociation constant of the inhibited enzyme-inhibitor complex)
T1 construct: human kidney renin purified as described in Bangham; from tissue; host or cells: human kidney
T1 sequence (P00797 67-406): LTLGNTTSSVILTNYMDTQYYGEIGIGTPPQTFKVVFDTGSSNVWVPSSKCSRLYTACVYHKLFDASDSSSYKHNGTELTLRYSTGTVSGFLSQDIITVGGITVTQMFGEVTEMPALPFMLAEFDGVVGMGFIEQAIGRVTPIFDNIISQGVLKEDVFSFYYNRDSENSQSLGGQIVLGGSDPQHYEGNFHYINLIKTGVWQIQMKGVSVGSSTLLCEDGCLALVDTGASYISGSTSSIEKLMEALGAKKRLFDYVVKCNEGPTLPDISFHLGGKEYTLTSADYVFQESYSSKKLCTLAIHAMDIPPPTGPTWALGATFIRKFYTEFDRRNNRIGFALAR
Procedure: An assay was carried out in order to determine the inhibitory potency of the peptides of the present invention. The assay measured the inhibition of human kidney renin purified as described in Bangham, D. R., Robertson, I., Robinson, J. I. S., Robinson, C. J., and Tree, M., Clinical Science and Molecular Medicine, 48 (Supp. 2): 136s-159s (1975), and further purified by affinity chromatography on pepstatin-aminohexyl-Sepharase as described in Poe, M., Wu., J. K., Florance, J. R., Radkey, J. A., Bennett, C. D., and Hoagsteen, K., J. Biol. Chem. (1982, in press). The assay was also in accordance with Poe et al. cited above. Results are expressed as KI values, which refer to the dissociation constant of the inhibited enzyme-inhibitor complex. This KI value was obtained as described above. […]

[2] = test system: nephrectomized rats; conditions: after the injection of hog renin into nephrectomized rats; Gross et al. 1971; cited from earlier work
[3] = test system: hog kidney renin; test: Hog renin inhibition; format: biochemical; conditions: pH 7.3, read-out: I50 (concentration of peptide inhibitor necessary to produce 50% inhibition of renin activity)
Procedure: An assay was carried out in order to determine the inhibitory potency of the peptides of the present invention. The assay measured the inhibition of hog kidney renin, and was in accordance with the procedure described in Rich et al., J. Med. Chem. 23:27, 1980, except that a pH of 7.3 was used. The results of the assay, illustrated in the table below, are expressed as I50 values, which refers to the concentration of peptide inhibitor necessary to produce 50% inhibition of renin activity. This I50 value is obtained typically by plotting data from four inhibitor concentrations.

Row | Compound | Ki [1] [µM] | other results
1 | CC(C)[C@@H]1NC(=O)[C@H](Cc2ccccc2)NC(=O)[C@H](Cc2ccccc2)NC(=O)[C@@H](NC(=O)[C@H](Cc2ccccc2)NC(=O)[C@@H]2CCCN2C(=O)[C@H](Cc2c[nH]cn2)NC(=O)[C@@H]2CCCN2)CCCCNC(=O)[C@H](Cc2ccccc2)NC1=O (H-PHPFKFFVF; lactam 5-C) | 33 | –
2 | Pepstatin | – | blood pressure in vivo [2]: reduce blood pressure
3 | CC(C)C[C@@H]1NC(=O)[C@@H](NC(=O)[C@H](Cc2ccccc2)NC(=O)[C@@H]2CCCN2C(=O)[C@H](Cc2c[nH]cn2)NC(=O)[C@@H]2CCCN2C(=O)OC(C)(C)C)CCCCNC(=O)[C@H](Cc2ccccc2)NC(=O)[C@H](C(C)C)NC(=O)[C@H](CC(C)C)NC1=O [drawing 67] (Boc-PHPFKLLVF; lactam 5-C) | – | IC50 [3]: 1000 µM
4 | CC(C)C[C@@H]1NC(=O)[C@@H](NC(=O)[C@H](Cc2ccccc2)NC(=O)[C@@H]2CCCN2C(=O)[C@H](Cc2c[nH]cn2)NC(=O)[C@@H]2CCCN2C(=O)OC(C)(C)C)CCCCNC(=O)[C@H](Cc2ccccc2)NC(=O)[C@H](C(C)C)NC(=O)[C@H](CC(C)C)NC1=O [drawing 69] (Boc-PHPFKLLVF; lactam 5-C) | 6.4 | –
